Test results published in patent US9845310B2 (priority 2015, dated 2017).

Tested on: naive Sprague Dawley rat hearts
Conditions: ex vivo isolated perfused rat heart, percent change over vehicle; for Isolated Heart Assay dP/dtmax(%): contractility; for Isolated Heart Assay dP/dtmin(%): relaxation (lusitropic)

Structure (SMILES): COc1cccc(OC)c1-n1c(NS(=O)(=O)[C@@H](C)[C@H](OC)c2ncc(F)cn2)nnc1-c1cncc(C)c1 [Example 80.0, (1R,2S)-N-(4-(2,6-dimethoxyphenyl)-5-(5-methyl-3-pyridinyl)-4H-1,2,4-triazol-3-yl)-1-(5-fluoro-2-pyrimidinyl)-1-methoxy-2-propanesulfonamide]
- Isolated Heart Assay dP/dtmax(%): 5.0%
- Isolated Heart Assay dP/dtmin(%): −2.7%

Structure (SMILES): CCO[C@H](c1ncc(Cl)cn1)[C@H](C)S(=O)(=O)Nc1nnc(-c2cccnc2)n1-c1c(OC)cccc1OC [Example 430.0, (1R,2S)-1-(5-chloropyrimidin-2-yl)-N-(4-(2,6-dimethoxyphenyl)-5-(pyridin-3-yl)-4H-1,2,4-triazol-3-yl)-1-ethoxypropane-2-sulfonamide]
- Isolated Heart Assay dP/dtmax(%): 10.0%
- Isolated Heart Assay dP/dtmin(%): 9.7%

Structure (SMILES): CCO[C@H](c1ncc(F)cn1)[C@H](C)S(=O)(=O)Nc1nnc(-c2cncc(C)c2)n1-c1c(OC)cccc1OC [Example 79.0, (1R,2S)-N-(4-(2,6-dimethoxyphenyl)-5-(5-methyl-3-pyridinyl)-4H-1,2,4-triazol-3-yl)-1-ethoxy-1-(5-fluoro-2-pyrimidinyl)-2-propanesulfonamide]
- Isolated Heart Assay dP/dtmax(%): 10.0%
- Isolated Heart Assay dP/dtmin(%): 5.0%

Structure (SMILES): COc1cccc(-c2nnc(NS(=O)(=O)[C@@H](C)[C@H](OC)c3ncc(C)cn3)n2-c2cccnc2OC)n1 (atropisomer, axis not shown) [Example 741.0, (1R,2S, P)-1-methoxy-N-(4-(2-methoxy-3-pyridinyl)-5-(6-methoxy-2-pyridinyl)-4H-1,2,4-triazol-3-yl)-1-(5-methyl-2-pyrimidinyl)-2-propanesulfonamide and (1R,2S, M)-1-methoxy-N-(4-(2-methoxy-3-pyridinyl)-5-(6-methoxy-2-pyridinyl)-4H-1,2,4-triazol-3-yl)-1-(5-methyl-2-pyrimidinyl)-2-propanesulfonamide]
- Isolated Heart Assay dP/dtmax(%): 1.4%
- Isolated Heart Assay dP/dtmin(%): 6.6%

Structure (SMILES): COc1cccc(OC)c1-n1c(NS(=O)(=O)[C@@H](C)[C@H](OC)c2ncc(Cl)cn2)nnc1-c1cccnc1 [Example 591.0, (1R,2S)-1-(5-chloro-2-pyrimidinyl)-N-(4-(2,6-dimethoxyphenyl)-5-(3-pyridinyl)-4H-1,2,4-triazol-3-yl)-1-methoxy-2-propanesulfonamide]
- Isolated Heart Assay dP/dtmax(%): 8.0%
- Isolated Heart Assay dP/dtmin(%): 0.0%

Structure (SMILES): CCO[C@H](c1ncc(F)cn1)[C@H](C)S(=O)(=O)Nc1nnc(-c2cccnc2)n1-c1c(OC)cccc1OC [Example 51.0, (1R,2S)-N-(4-(2,6-dimethoxyphenyl)-5-(3-pyidinyl)-4H-1,2,4-triazol-3-yl)-1-ethoxy-1-(5-fluoro-2-pyrimidinyl)-2-propanesulfonamide]
- Isolated Heart Assay dP/dtmax(%): 2.0%
- Isolated Heart Assay dP/dtmin(%): 2.0%

Structure (SMILES): CCO[C@H](c1ncc(C)cn1)[C@H](C)S(=O)(=O)Nc1nnc(-c2cncc(C)c2)n1-c1c(OC)cccc1OC [Example 252.0, (1R,2S)-N-(4-(2,6-dimethoxyphenyl)-5-(5-methylpyridin-3-yl)-4H-1,2,4-triazol-3-yl)-1-ethoxy-1-(5-methylpyrimidin-2-yl)propane-2-sulfonamide]
- Isolated Heart Assay dP/dtmax(%): 15.7%
- Isolated Heart Assay dP/dtmin(%): 16.3%

Structure (SMILES): COc1ncnc(OC)c1-n1c(NS(=O)(=O)[C@@H](C)[C@H](C)c2ncc(Cl)cn2)nnc1-c1cccnc1 [Example 709.0, (2S,3R)-3-(5-chloro-2-pyrimidinyl)-N-(4-(4,6-dimethoxy-5-pyrimidinyl)-5-(3-pyridinyl)-4H-1,2,4-triazol-3-yl)-2-butanesulfonamide]
- Isolated Heart Assay dP/dtmax(%): 6.0%
- Isolated Heart Assay dP/dtmin(%): 3.0%

Structure (SMILES): COc1cccc(-c2nnc(NS(=O)(=O)[C@@H](C)[C@H](C)c3ncc(Cl)cn3)n2-c2c(OC)ncnc2OC)n1 [Example 710.0, (2S,3R)-3-(5-chloro-2-pyrimidinyl)-N-(4-(4,6-dimethoxy-5-pyrimidinyl)-5-(6-methoxy-2-pyridinyl)-4H-1,2,4-triazol-3-yl)-2-butanesulfonamide]
- Isolated Heart Assay dP/dtmax(%): 12.7%
- Isolated Heart Assay dP/dtmin(%): 10.3%

Structure (SMILES): COc1cccc(OC)c1-n1c(NS(=O)(=O)[C@H](C)[C@@H](O)c2cnc(C)cn2)nnc1-c1cncc(C)c1 (single isomer, unassigned) [Example 569.0, (1S,2R)-N-(4-(2,6-dimethoxyphenyl)-5-(5-methyl-3-pyridinyl)-4H-1,2,4-triazol-3-yl)-1-hydroxy-1-(5-methyl-2-pyrazinyl)-2-propanesulfonamide or (1R,2S)-N-(4-(2,6-dimethoxyphenyl)-5-(5-methyl-3-pyridinyl)-4H-1,2,4-triazol-3-yl)-1-hydroxy-1-(5-methyl-2-pyrazinyl)-2-propanesulfonamide]
- Isolated Heart Assay dP/dtmax(%): 12.4%
- Isolated Heart Assay dP/dtmin(%): 12.7%

Structure (SMILES): COc1cccc(OC)c1-n1c(NS(=O)(=O)[C@H](C)[C@@H](O)c2cnc(C)cn2)nnc1-c1cccnc1 [Example 614.0, (1S,2R)-N-(4-(2,6-dimethoxyphenyl)-5-(3-pyridinyl)-4H-1,2,4-triazol-3-yl)-1-hydroxy-1-(5-methyl-2-pyrazinyl)-2-propanesulfonamide]
- Isolated Heart Assay dP/dtmax(%): 6.6%
- Isolated Heart Assay dP/dtmin(%): 6.2%

Structure (SMILES): COc1cnc([C@@H](C)[C@H](C)S(=O)(=O)Nc2nnc(-c3cccnc3)n2-c2c(OC)ncnc2OC)cn1 [Example 803.0, (2S,3R)-N-(4-(4,6-dimethoxy-5-pyrimidinyl)-5-(3-pyridinyl)-4H-1,2,4-triazol-3-yl)-3-(5-methoxy-2-pyrazinyl)-2-butanesulfonamide]
- Isolated Heart Assay dP/dtmax(%): 11.4%
- Isolated Heart Assay dP/dtmin(%): 10.0%

Structure (SMILES): CCO[C@H](c1ncc(Cl)cn1)[C@H](C)S(=O)(=O)Nc1nnc(-c2cncc(C)c2)n1-c1c(OC)cccc1OC [Example 610.0, (1R,2S)-1-(5-chloro-2-pyrimidinyl)-N-(4-(2,6-dimethoxyphenyl)-5-(5-methyl-3-pyridinyl)-4H-1,2,4-triazol-3-yl)-1-ethoxy-2-propanesulfonamide]
- Isolated Heart Assay dP/dtmax(%): 6.0%
- Isolated Heart Assay dP/dtmin(%): No effect

Structure (SMILES): COc1cccc(OC)c1-n1c(NS(=O)(=O)[C@H](C)[C@@H](OC)c2cnc(C)cn2)nnc1-c1cncc(C)c1 (single isomer, unassigned) [Example 571.0, (1S,2R)-N-(4-(2,6-dimethoxyphenyl)-5-(5-methyl-3-pyridinyl)-4H-1,2,4-triazol-3-yl)-1-methoxy-1-(5-methyl-2-pyrazinyl)-2-propanesulfonamide or (1R,2S)-N-(4-(2,6-dimethoxyphenyl)-5-(5-methyl-3-pyridinyl)-4H-1,2,4-triazol-3-yl)-1-methoxy-1-(5-methyl-2-pyrazinyl)-2-propanesulfonamide]
- Isolated Heart Assay dP/dtmax(%): 13.3%
- Isolated Heart Assay dP/dtmin(%): 18.8%

Structure (SMILES): COc1ncnc(OC)c1-n1c(NS(=O)(=O)[C@@H](C)[C@H](OC)c2ccc(Cl)cn2)nnc1-c1cccnc1 (single isomer, unassigned) [Example 711.0, (1R,2S)-1-(5-chloro-2-pyridinyl)-N-(4-(4,6-dimethoxy-5-pyrimidinyl)-5-(3-pyridinyl)-4H-1,2,4-triazol-3-yl)-1-methoxy-2-propanesulfonamide or (1S,2R)-1-(5-chloro-2-pyridinyl)-N-(4-(4,6-dimethoxy-5-pyrimidinyl)-5-(3-pyridinyl)-4H-1,2,4-triazol-3-yl)-1-methoxy-2-propanesulfonamide]
- Isolated Heart Assay dP/dtmax(%): 9.4%
- Isolated Heart Assay dP/dtmin(%): 1.1%

Structure (SMILES): COc1cccc(OC)c1-n1c(NS(=O)(=O)[C@@H](C)[C@H](C)c2ncc(F)cn2)nnc1-c1cccnc1 (racemic) [Example 184.0, (2R,3S)-N-(4-(2,6-dimethoxyphenyl)-5-(3-pyridinyl)-4H-1,2,4-triazol-3-yl)-3-(5-fluoro-2-pyrimidinyl)-2-butanesulfonamide or (2S,3R)-N-(4-(2,6-dimethoxyphenyl)-5-(3-pyridinyl)-4H-1,2,4-triazol-3-yl)-3-(5-fluoro-2-pyrimidinyl)-2-butanesulfonamide]
- Isolated Heart Assay dP/dtmax(%): 14.5%
- Isolated Heart Assay dP/dtmin(%): 14.0%

Structure (SMILES): COc1cccc(OC)c1-n1c(NS(=O)(=O)[C@@H](C)[C@H](OC)c2ncc(F)cn2)nnc1-c1cccnc1 [Example 81.0, (1R,2S)-N-(4-(2,6-dimethoxyphenyl)-5-(3-pyridinyl)-4H-1,2,4-triazol-3-yl)-1-(5-fluoro-2-pyrimidinyl)-1-methoxy-2-propanesulfonamide]
- Isolated Heart Assay dP/dtmax(%): 14.0%
- Isolated Heart Assay dP/dtmin(%): 15.0%

Structure (SMILES): COc1cccc(-c2nnc(NS(=O)(=O)[C@@H](C)[C@H](C)c3ncc(C)cn3)n2-c2c(F)cccc2F)n1 [Example 784.0, (2S,3R)-N-(4-(2,6-difluorophenyl)-5-(6-methoxy-2-pyridinyl)-4H-1,2,4-triazol-3-yl)-3-(5-methyl-2-pyrimidinyl)-2-butanesulfonamide]
- Isolated Heart Assay dP/dtmax(%): 4.3%
- Isolated Heart Assay dP/dtmin(%): 1.93%

Structure (SMILES): COc1cnc([C@H](O)[C@@H](C)S(=O)(=O)Nc2nnc(-c3cccnc3)n2-c2c(OC)cccc2OC)cn1 (single isomer, unassigned) [Example 706.0, (1S,2R)-N-(4-(2,6-dimethoxyphenyl)-5-(3-pyridinyl)-4H-1,2,4-triazol-3-yl)-1-hydroxy-1-(5-methoxy-2-pyrazinyl)-2-propanesulfonamide or (1R,2S)-N-(4-(2,6-dimethoxyphenyl)-5-(3-pyridinyl)-4H-1,2,4-triazol-3-yl)-1-hydroxy-1-(5-methoxy-2-pyrazinyl)-2-propanesulfonamide]
- Isolated Heart Assay dP/dtmax(%): 9.1%
- Isolated Heart Assay dP/dtmin(%): 4.0%
